# Data taken from paper PMC12034907 (Journal of Clinical Pharmacology, 2024).
# “Also recorded” adds a separate entry of the source. Like-named read-outs stand apart in the source and are kept apart here. Marks after values point to notes of the source that are not given here.
# Experiments:
# CYP3A4 [1] = tested on: CYP3A4
# [2] = Clinical DDI study: safety and tolerability; assay type: in vivo, human; settings: for AEs leading to death / AEs leading to treatment discontinuation / Related AEs / Serious AEs / Severity of AE: Mild / Severity of AE: Moderate / Severity of AE: Severe / AEs: by period, safety population; for AEs: participants who experienced AEs
# CYP3A4 [3] = settings: liver metabolism; cited from earlier work
# CYP2C9 = settings: liver metabolism; cited from earlier work
# CYP2C19 = settings: liver metabolism; cited from earlier work
# [4] = cited from earlier work
# CYP3A = settings: cited from earlier work; for midazolam exposure relative to baseline exposure: studies with CYP3A inducers; for effect of CYP3A inhibitor on midazolam exposure: interaction studies
# [5] = midazolam 5 mg + mavacamten 15 mg on day 17, geometric mean (geometric CV%)
# [6] = midazolam 5 mg oral alone (day 1), geometric mean (geometric CV%)
# [7] = with mavacamten vs midazolam alone
smiles,measurement,setting,value
"OCc1ncc2n1-c1ccc(Cl)cc1C(c1ccccc1F)=NC2 [1′‐Hydroxymidazolam, 1′‐hydroxymidazolam]","tmax, median (range)","midazolam 5 mg + mavacamten 15 mg on day 17, n = 12",0.51 (0.50‐1.0) h
same,AUC0-inf,[5],47.76 (36.3) (n = 7) ^b ng∙h/mL
same,t1/2,[5],5.22 (29.9) (n = 7) ^b h
same,"tmax, median (range)","midazolam 5 mg oral alone (day 1), n = 13",1.00 (0.50‐2.08) h
same,AUC0-last,"midazolam 5 mg oral alone (day 1), n = 13, geometric mean (geometric CV%)",38.63 (22.2) ng∙h/mL
same,AUC0-inf,[6],41.47 (24.1) (n = 10) ^b ng∙h/mL
same,t1/2,[6],6.48 (24.7) (n = 10) ^b h
same,increase in AUC0-inf,CYP3A4 [1]; [7],20%
same,increase in AUC0-last,CYP3A4 [1]; [7],11%
same,increase in Cmax,CYP3A4 [1]; [7],28%
CC(C)n1c(=O)cc(N[C@@H](C)c2ccccc2)[nH]c1=O [Mavacamten],AEs leading to death,[2],0 n (%)
same,AEs leading to treatment discontinuation,[2],0 n (%)
same,Related AEs,[2],5 (38.5) n (%)
same,Serious AEs,[2],0 n (%)
same,Severity of AE: Mild,[2],9 (69.2) n (%)
same,Severity of AE: Moderate,[2],1 (7.7) n (%)
same,Severity of AE: Severe,[2],0 n (%)
same,tolerability,[2]; healthy participants,well tolerated
same,AEs,[2],9 (69.2) n (%)
same,share of metabolism by CYP3A4,CYP3A4 [3],18%
same,share of metabolism by CYP2C9,CYP2C9,8%
same,share of metabolism by CYP2C19,CYP2C19,74%
same,estimated oral bioavailability,[4],at least 85%
same,median time to maximum plasma concentration (tmax),[4],1 to 2 h
same,effect of mavacamten on midazolam exposure (CYP3A4 induction),"CYP3A4 [1]; clinically relevant mavacamten exposures, healthy participants",negligible effect; also recorded: did not meet the criteria for induction
Cc1ncc2n1-c1ccc(Cl)cc1C(c1ccccc1F)=NC2 [Midazolam],AEs leading to death,[2],0 n (%)
same,AEs leading to treatment discontinuation,[2],0 n (%)
same,Related AEs,[2],2 (15.4) n (%)
same,Serious AEs,[2],0 n (%)
same,Severity of AE: Mild,[2],3 (23.1) n (%)
same,Severity of AE: Moderate,[2],0 n (%)
same,Severity of AE: Severe,[2],0 n (%)
same,AEs,[2],3 (23.1) n (%)
same,Tmax,"human, plasma, oral, tmax, midazolam alone or with mavacamten",< 1 h
same,AUC(0-t),"human, plasma, po, 5 mg",51 ng·h/mL
same,t1/2,[5],4.84 (34.4) (n = 9) ^a h
same,t1/2,[6],5.28 (39.3) h
same,decrease in AUC0-inf,CYP3A4 [1]; [7],13%
same,decrease in AUC0-last,CYP3A4 [1]; [7],24%
same,decrease in Cmax,CYP3A4 [1]; [7],7%
NC(=O)N1c2ccccc2C=Cc2ccccc21 [carbamazepine],midazolam exposure relative to baseline exposure,CYP3A,below 10%
CC(=O)N1CCN(c2ccc(OCC3COC(Cn4ccnc4)(c4ccc(Cl)cc4Cl)O3)cc2)CC1 (centres unmarked) [ketoconazole],effect of CYP3A inhibitor on midazolam exposure,CYP3A,increases in midazolam exposure
O=C1NC(=O)C(c2ccccc2)(c2ccccc2)N1 [phenytoin],midazolam exposure relative to baseline exposure,CYP3A,below 10%
C[C@@H](c1ncncc1F)[C@](O)(Cn1cncn1)c1ccc(F)cc1F [voriconazole],effect of CYP3A inhibitor on midazolam exposure,CYP3A,increases in midazolam exposure
